From US20230133114A1, “COMPOSITIONS AND METHODS CONTAINING REDUCED NICOTINAMIDE RIBOSIDE FOR PREVENTION AND TREATMENT OF VIRAL AND BACTERIAL INFECTIONS” (SOCIETE DES PRODUITS NESTLE S.A., priority 2020, published 2023)
Where a name gives a salt, the structure may show the parent alone. Each block holds one compound with its values, some of them ahead of it.

How the values were obtained:
[1] = Stability of NRH or NR spiked in isolated mouse plasma; assay type: in vitro ADME; details: for levels of spiked compound in plasma: isolated mouse plasma, 2 h of incubation
Text: (§1) Levels of NRH and other NAD-related metabolites in biological samples were obtained by using a cold liquid-liquid extraction using a mixture of methanol:water:chloroform in 5:3:5 (v/v), from which the polar phase was recovered for hydrophilic interaction ultra-high performance liquid chromatography mass spectrometry (UHPLC-MS) analysis. The UHPLC consisted of a binary pump, a cooled autosampler, and a column oven (DIONEX Ultimate 3000 UHPLC+ Focused, Thermo Scientific), connected to a triple quadrupole spectrometer (TSQ Vantage, Thermo Scientific) equipped with a heated electrospray ionisation (H-ESI) source. Of each sample, 2 µL were injected into the analytical column (2.1 mm × 150 mm, 5 µm pore size, 200 Å HILICON iHILIC®-Fusion(P)), guarded by a pre-column (2.1 mm × 20 mm, 200 Å HILICON iHILIC®-Fusion(P) Guard Kit) operating at 35° C. The mobile phase (10 mM ammonium acetate at pH 9, A, and acetonitrile, B) was pumped at 0.25 mL/min flow rate over a linear gradient of decreasing organic solvent (0.5-16 min, 90-25% B), followed by re-equilibration for a total run time of 30 min. The MS operated in positive mode at 3500 V with multiple reaction monitoring (MRM). The software Xcalibur v4.1.31.9 (Thermo Scientific) was used for instrument control, data acquisition and processing. Retention time and mass detection was confirmed by authentic standards.
(§2) NR degradation to NAM has been proposed as a limitation for its pharmacological efficacy. To evaluate whether NRH was also susceptible to degradation to NAM, we spiked NRH or NR in isolated mouse plasma. […] We also tested the stability of NRH in other matrixes. […] Finally, we also certified NRH stability in water (pH=7, at room temperature) for 48 h.

[2] = Stability in FBS supplemented media; assay type: in vitro ADME
Procedure: as §2

NAD+ levels [3] = assay: Tissue NAD+ levels after IP injection in mice; assay type: in vivo; details: IP 500 mg/kg, after 1 h
Text: as §1
The above results prompted us to test whether NRH could act as an effective NAD+ precursor in vivo. For this, we first intraperitoneally (IP) injected mice with either NR or NRH (500 mg/kg). […] Importantly, NRH was detectable in circulation after IP injection.

[4] = Circulating NRH, NR and NAM after IP injection in mice; assay type: in vivo
Text: as §1, with “standards. […]” for “standards.”

[5] = Plasma NRH, NR and NAM after oral administration in mice; assay type: in vivo
Text: as §1
Oral administration of NRH led to very similar results to those observed after IP administration. […] NRH was detectable in plasma 1 h after oral administration. In contrast, NR levels were undetectable at 1 h after NR administration.

Stability in water = assay type: physicochemical; details: pH=7, room temperature, 48 h
Procedure: as §2

NAD+ levels [6] = assay: Hepatic NAD+ levels after oral administration in mice; assay type: in vivo; details: oral administration (FIG. 2: 500 mg/kg, 1 hour)
Procedure: 8 week-old C57BI/6NTac mice were orally gavaged with either saline (as vehicle), NR (500 mg/kg) or NRH (500 mg/kg). After 1 hour, liver, skeletal muscle and kidney NAD^+ levels were evaluated. All results are expressed as mean +/-SEM of n=5 mice per group. * indicates statistical difference at p<0.05 vs. vs. saline-treated mice. # indicates statistical difference at p<0.05 vs. NR treated mice.
(§3) Levels of NRH and other NAD-related metabolites in biological samples were obtained by using a cold liquid-liquid extraction using a mixture of methanol:water:chloroform in 5:3:5 (v/v), from which the polar phase was recovered for hydrophilic interaction ultra-high performance liquid chromatography mass spectrometry (UHPLC-MS) analysis. The UHPLC consisted of a binary pump, a cooled autosampler, and a column oven (DIONEX Ultimate 3000 UHPLC+ Focused, Thermo Scientific), connected to a triple quadrupole spectrometer (TSQ Vantage, Thermo Scientific) equipped with a heated electrospray ionisation (H-ESI) source. Of each sample, 2 µL were injected into the analytical column (2.1 mm × 150 mm, 5 µm pore size, 200 Å HILICON iHILIC®-Fusion(P)), guarded by a pre-column (2.1 mm × 20 mm, 200 Å HILICON iHILIC®-Fusion(P) Guard Kit) operating at 35° C. […]

[7] = NRH levels in liver, kidney and muscle after oral gavage; assay type: in vivo; details: mice, oral gavage 250 mg/kg, 2 hours
Procedure: (§4) 8 week-old C57BI/6NTac mice were orally gavaged with either saline (as vehicle), and NRH (250 mg/kg). After 2 hours, liver, skeletal muscle and kidney NRH levels were evaluated. All results are expressed as mean +/-SEM of n=4 mice per group, as areas under the signal by LC-MS analysis, corrected by total protein amount of tissue.
as §1

[8] = NRH levels in lung after oral gavage; assay type: in vivo; details: mice, oral gavage of stable isotope-labelled NRH 250 mg/kg, 2 hours
Procedure: as §4, with “and an stable isotope-labelled” for “and”, “hours,” for “hours, liver, skeletal muscle and kidney”, “levels in the lung” for “levels”, “+/-SE” for “+/-SEM”
as §3, with “source.” for “source. Of each sample, 2 µL were injected into the analytical column (2.1 mm × 150 mm, 5 µm pore size, 200 Å HILICON iHILIC®-Fusion(P)), guarded by a pre-column (2.1 mm × 20 mm, 200 Å HILICON iHILIC®-Fusion(P) Guard Kit) operating at 35° C.”
8 week-old C57BI/6NTac mice were orally gavaged with either saline (as vehicle), and an stable isotope-labelled NRH (250 mg/kg). After 2 hours, NRH levels in the lung were evaluated. All results are expressed as mean +/-SE of n=4 mice per group, as areas under the signal by LC-MS analysis, corrected by total protein amount of tissue (FIG. 4).

[9] = tested on: Salmonella enterica serovar Typhimurium; assay: Anti-bacterial response of monocyte-derived macrophages against Salmonella (CFU counts); assay type: cell-based; details: 0.01 mM for 42 h prior to infection, MOI 10, 1 h; gentamicin 2 h
Procedure: (§5) Monocyte-derived macrophages were treated with 0.01 mM NRH for 42 h prior to infection with Salmonella enterica serovar Typhimurium for 1 h using a multiplicity of infection of 10. Following infection, macrophages were treated with gentamicin for 2 h before cell lysis. Values show absolute colony forming unit (CFU) counts with each dot representing one donor and each line representing paired samples. Graphs show pooled data of 2 independent experiments with 2-3 donors/experiment.
as §5, with “donors/experiment. (FIG. 5).” for “donors/experiment.”

RAW 264.7 macrophages = assay: Intracellular NAD+ in cultured RAW 264.7 macrophages; assay type: cell-based; details: 1 hour
Procedure: RAW 264.7 macrophages were treated with dihydronicotinamide riboside (NRH) at the concentrations indicated. […] Control (0 mM) group. RAW 264.7 macrophages were treated with dihydronicotinamide riboside (NRH) at the concentrations indicated.

[10] = tested on: Mouse bone marrow derived macrophages; assay: Intracellular NAD+ in cultured bone marrow derived macrophages; assay type: cell-based; details: 1 or 2 hours
Procedure: Mouse bone marrow derived macrophages were treated with dihydronicotinamide riboside (NRH) at the concentrations indicated, using PBS as control. […] Control group. Mouse bone marrow derived macrophages were treated with dihydronicotinamide riboside (NRH) at the concentrations indicated, using PBS as control.

Splenocytes = assay: Intracellular NAD+ in splenocytes; assay type: cell-based; details: splenocytes from 1 year old mice, 2 hours
Procedure: Then, 2 hours later, intracellular NAD+ levels were measured. * indicates p<0.05 vs. Control (0 mM) group. […] Then, 2 hours later, intracellular NAD+ levels were measured as described above.

- levels of spiked compound in plasma [1]: decayed
- degradation to NAM in FBS supplemented media [2]: occurs
- NAM levels in circulation ([4]; IP 500 mg/kg): highly increased
- circulating NAM relative to that after NRH treatment ([5]; C57BL/6NTac, mouse, in vivo, po, 1 h): ~ 4 fold
- circulating NAM ([5]; mouse, in vivo, po): large increases
Compound: NC(=O)c1ccc[n+]([C@@H]2O[C@H](CO)[C@@H](O)[C@H]2O)c1 [NR, 1-b-D-ribofuranosyl-3-pyridinecarboxamide salt, reference compound]
- NAD+ levels in kidney (NAD+ levels [3]): increased
- NAD+ levels in liver (NAD+ levels [3]): increased
- NAD+ levels in muscle (NAD+ levels [3]): increased

- levels of spiked compound in plasma [1]: remained stable
- NR production on incubation in isolated plasma ([1]; isolated plasma): did not lead to NR production
- degradation to NAM in FBS supplemented media [2]: did not degrade to NAM
- stability in water (Stability in water): stability
- NRH in plasma ([5]; mice, 1 h after oral administration): detectable
- NRH concentration in plasma ([5]; mice, after oral gavage): 11.16 ± 1.74 µM
- NRH in kidney [7]: found intact, in high levels
- NRH in liver [7]: found intact, in high levels
- NRH in muscle [7]: found intact, in high levels
- NRH in lung [8]: efficient biodistribution in the lung
Compound: NC(=O)C1=CN([C@@H]2O[C@H](CO)[C@@H](O)[C@H]2O)C=CC1 [NRH, dihydronicotinamide riboside]
- NAD+ levels in kidney (NAD+ levels [3]): increased
- NAD+ levels in liver (NAD+ levels [3]): increased
- NAD+ levels in muscle (NAD+ levels [3]): increased
- NR in circulation ([4]; after IP treatment, compared with NR injection): much higher levels than those detected after NR injection itself
- effect on hepatic NAD+ levels (NAD+ levels [6]): more potent effect on hepatic NAD+ levels than NR
- anti-bacterial macrophage response against salmonella [9]: able to augment anti-bacterial macrophage response
- intracellular NAD+ levels (RAW 264.7 macrophages): increases NAD+
- intracellular NAD+ levels [10]: increases NAD+
- intracellular NAD+ levels (Splenocytes): increases NAD+
